Experimental data reported in BigSolDB 2.1.

O=[N+]([O-])c1ccc(Cl)c(Cl)c1
solubility (mole fraction)
Conditions | in ethanol | in methanol
278.15 K | 0.02 | 0.0208
280.65 K | 0.0271 | 0.0251
283.15 K | 0.0352 | 0.0296
285.65 K | 0.0444 | 0.0353
288.15 K | 0.0549 | 0.0422
290.65 K | 0.0661 | 0.0505
293.15 K | 0.0769 | 0.0611
295.65 K | 0.0888 | 0.0724
298.15 K | 0.0997 | 0.0873
300.65 K | 0.111 | 0.105
303.15 K | 0.119 | 0.125
